Measurements from ChEMBL document CHEMBL4229504, “Incorporation of histone deacetylase inhibitory activity into the core of tamoxifen - A new hybrid design paradigm” (Bioorg Med Chem, 2018).
The source made the active and inactive calls. The rule behind the calls is not given here.

How the values were obtained:
[1] = system: MCF7; experiment: Cytotoxicity against ER positive human MCF7 cells treated every 2 days for 4 days measured after 7 days by CellTiter-Glo luminescence assay; format: functional, cell-based
[2] = biological target: T1, Estrogen receptor (Homo sapiens, UniProt P03372); experiment: Antagonist activity at recombinant human ERalpha expressed in HEK293 cells assessed as inhibition of estradiol-induced YFP-fused SRC1 coactivator recruitment measured after 1 hr in presence of Coelenterazine H by BRET assay; format: cell-based
T1 sequence (P03372 whole entry): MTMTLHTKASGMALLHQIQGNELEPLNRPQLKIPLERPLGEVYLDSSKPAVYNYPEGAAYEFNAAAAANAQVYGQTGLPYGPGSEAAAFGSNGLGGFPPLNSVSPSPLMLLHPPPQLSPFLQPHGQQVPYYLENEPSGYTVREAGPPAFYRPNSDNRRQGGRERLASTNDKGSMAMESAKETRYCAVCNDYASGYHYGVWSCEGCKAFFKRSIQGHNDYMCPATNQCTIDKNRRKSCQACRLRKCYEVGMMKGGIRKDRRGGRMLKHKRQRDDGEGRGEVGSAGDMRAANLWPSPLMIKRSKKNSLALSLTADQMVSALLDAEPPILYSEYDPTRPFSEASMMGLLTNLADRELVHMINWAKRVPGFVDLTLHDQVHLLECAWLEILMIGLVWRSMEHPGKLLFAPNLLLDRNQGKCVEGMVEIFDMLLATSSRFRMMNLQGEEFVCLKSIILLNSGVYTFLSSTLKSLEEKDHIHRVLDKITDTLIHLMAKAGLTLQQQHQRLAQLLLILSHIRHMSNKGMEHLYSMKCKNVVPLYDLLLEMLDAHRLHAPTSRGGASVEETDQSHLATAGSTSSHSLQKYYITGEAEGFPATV

[3] = system: MCF7; experiment: Cytotoxicity against ER positive human MCF7 cells treated every 2 days for 4 days measured post last dose by CellTiter-Glo luminescence assay; format: functional, cell-based
[4] = biological target: T1, Estrogen receptor; experiment: Partial agonist activity at recombinant human ERalpha expressed in HEK293 cells assessed as YFP-fused SRC1 coactivator recruitment measured after 1 hr in presence of Coelenterazine H by BRET assay; format: cell-based; details: hek293, 1 h
[5] = biological target: T2, Protein deacetylase HDAC6 (Homo sapiens, UniProt Q9UBN7); experiment: Inhibition of full length recombinant human N-terminal GST-tagged HDAC6 expressed in Sf9 cells using Ac-Leu-Gly-Lys(Ac)-AMC as substrate measured after 30 mins by fluorescence assay
T2 sequence (Q9UBN7 whole entry): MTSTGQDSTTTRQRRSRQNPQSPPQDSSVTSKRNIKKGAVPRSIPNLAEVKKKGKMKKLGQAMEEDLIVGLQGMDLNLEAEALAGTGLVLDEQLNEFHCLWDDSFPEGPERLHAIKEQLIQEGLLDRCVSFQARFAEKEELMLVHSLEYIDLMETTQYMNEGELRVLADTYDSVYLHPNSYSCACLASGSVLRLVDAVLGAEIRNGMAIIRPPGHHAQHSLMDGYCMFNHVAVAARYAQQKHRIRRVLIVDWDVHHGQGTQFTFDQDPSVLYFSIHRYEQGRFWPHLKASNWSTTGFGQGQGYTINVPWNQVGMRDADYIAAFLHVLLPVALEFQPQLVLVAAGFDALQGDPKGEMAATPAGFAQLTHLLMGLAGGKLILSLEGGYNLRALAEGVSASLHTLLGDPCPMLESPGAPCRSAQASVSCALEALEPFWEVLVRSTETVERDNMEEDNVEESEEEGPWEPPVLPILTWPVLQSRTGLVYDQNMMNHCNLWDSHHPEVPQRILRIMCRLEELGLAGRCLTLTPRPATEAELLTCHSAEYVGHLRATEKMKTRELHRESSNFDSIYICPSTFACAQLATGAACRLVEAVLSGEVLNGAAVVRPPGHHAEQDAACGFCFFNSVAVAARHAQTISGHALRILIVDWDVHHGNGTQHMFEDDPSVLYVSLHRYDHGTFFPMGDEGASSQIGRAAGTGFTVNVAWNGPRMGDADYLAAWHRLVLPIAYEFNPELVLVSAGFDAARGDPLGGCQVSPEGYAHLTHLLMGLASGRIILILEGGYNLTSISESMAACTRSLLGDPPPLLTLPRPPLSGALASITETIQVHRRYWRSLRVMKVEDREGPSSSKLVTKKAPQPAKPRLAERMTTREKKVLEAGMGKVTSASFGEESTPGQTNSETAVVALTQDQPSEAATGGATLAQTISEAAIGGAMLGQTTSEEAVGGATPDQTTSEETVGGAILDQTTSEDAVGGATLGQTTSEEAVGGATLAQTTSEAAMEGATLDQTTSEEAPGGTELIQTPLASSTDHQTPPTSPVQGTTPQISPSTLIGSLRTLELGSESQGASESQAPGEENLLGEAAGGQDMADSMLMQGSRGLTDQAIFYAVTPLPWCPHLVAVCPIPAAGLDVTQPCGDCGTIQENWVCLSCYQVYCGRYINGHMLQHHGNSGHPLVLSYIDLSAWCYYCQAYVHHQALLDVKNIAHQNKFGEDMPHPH

[6] = biological target: Histone deacetylase 3/Nuclear receptor corepressor 2 (HDAC3/NCoR2) (Homo sapiens, UniProt O15379); experiment: Inhibition of human full length C-terminal His-tagged HDAC3/N-terminal GST-tagged human NCOR2 (395 to 489 residues) expressed in baculovirus expression system using Ac-Leu-Gly-Lys(Ac)-AMC as substrate measured after 30 mins by fluorescence assay
[7] = system: MDA-MB-231; experiment: Cytotoxicity against ER negative human MDA-MB-231 cells treated every 2 days for 4 days measured after 7 days by CellTiter-Glo luminescence assay; format: functional, cell-based
[8] = biological target: T3, Histone deacetylase 6/3 (Homo sapiens) (UniProt O15379+Q9UBN7); experiment: Inhibition of HDAC6/HDAC3 in human MCF7 cells assessed as induction of CTGF mRNA expression at 5 uM after 24 hrs by QIAzol reagent based RT-qPCR analysis; format: cell-based
[9] = system: MCF-10A; experiment: Cytotoxicity against ER negative human MCF10A cells treated every 2 days for 4 days measured after 7 days by CellTiter-Glo luminescence assay; format: functional, cell-based
[10] = biological target: T3, Histone deacetylase 6/3 (Homo sapiens); experiment: Inhibition of HDAC6/HDAC3 in human MCF7 cells assessed as induction of SREBF1 mRNA expression at 5 uM after 24 hrs by QIAzol reagent based RT-qPCR analysis; format: cell-based
[11] = system: MDA-MB-231; experiment: Cytotoxicity against ER negative human MDA-MB-231 cells treated every 2 days for 4 days measured post last dose by CellTiter-Glo luminescence assay; format: functional, cell-based
[12] = system: MCF-10A; experiment: Cytotoxicity against ER negative human MCF10A cells treated every 2 days for 4 days measured post last dose by CellTiter-Glo luminescence assay; format: functional, cell-based
[13] = biological target: Histone deacetylase 3 (Homo sapiens) (UniProt O15379); experiment: Inhibition of HDAC3 in human MCF7 cells assessed as increase in acetylated histone H4 expression at 0.1 to 9 uM after 8 hrs by Western blot analysis; format: cell-based
[14] = biological target: T3, Histone deacetylase 6/3 (Homo sapiens); experiment: Inhibition of HDAC6/HDAC3 in human MCF7 cells assessed as induction of CDKN1A mRNA expression at 5 uM after 24 hrs by QIAzol reagent based RT-qPCR analysis; format: cell-based
[15] = biological target: T4, Protein deacetylase HDAC6 (Homo sapiens) (UniProt Q9UBN7); experiment: Inhibition of HDAC6 in human MCF7 cells assessed as increase in acetylated alpha-tubulin expression at 0.1 to 9 uM after 8 hrs by Western blot analysis; format: cell-based
T4 sequence (whole entry): T2 sequence (Q9UBN7 whole entry)

[16] = biological target: T5, Estrogen receptor (Homo sapiens) (UniProt P03372); experiment: Antagonist activity at recombinant human ERalpha expressed in HEK293 cells assessed as inhibition of estradiol-induced YFP-fused SRC1 coactivator recruitment at higher concentration measured after 1 hr in presence of Coelenterazine H by BRET assay; format: cell-based
T5 sequence (whole entry): T1 sequence (P03372 whole entry)

T3 sequence (O15379 whole entry, looked up, one chain of several): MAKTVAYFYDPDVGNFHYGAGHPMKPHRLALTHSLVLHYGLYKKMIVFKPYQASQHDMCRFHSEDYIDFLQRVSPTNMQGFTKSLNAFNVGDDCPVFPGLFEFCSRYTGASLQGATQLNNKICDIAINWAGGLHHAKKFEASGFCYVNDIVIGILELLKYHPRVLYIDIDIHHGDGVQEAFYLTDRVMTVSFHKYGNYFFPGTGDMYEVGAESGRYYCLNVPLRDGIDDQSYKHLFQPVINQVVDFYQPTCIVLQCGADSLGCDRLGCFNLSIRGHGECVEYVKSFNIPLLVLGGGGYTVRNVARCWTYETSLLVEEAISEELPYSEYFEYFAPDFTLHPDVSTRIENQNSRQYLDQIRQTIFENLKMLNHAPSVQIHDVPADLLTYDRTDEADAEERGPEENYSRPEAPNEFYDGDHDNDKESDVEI
Chain of Histone deacetylase 3/Nuclear receptor corepressor 2 (HDAC3/NCoR2) (O15379 whole entry, the tested form may be a part): as the sequence (O15379 whole entry, looked up, one chain of several) above
Chain of Histone deacetylase 3/Nuclear receptor corepressor 2 (HDAC3/NCoR2) (Q9Y618 whole entry, further chain, the tested form may be a part): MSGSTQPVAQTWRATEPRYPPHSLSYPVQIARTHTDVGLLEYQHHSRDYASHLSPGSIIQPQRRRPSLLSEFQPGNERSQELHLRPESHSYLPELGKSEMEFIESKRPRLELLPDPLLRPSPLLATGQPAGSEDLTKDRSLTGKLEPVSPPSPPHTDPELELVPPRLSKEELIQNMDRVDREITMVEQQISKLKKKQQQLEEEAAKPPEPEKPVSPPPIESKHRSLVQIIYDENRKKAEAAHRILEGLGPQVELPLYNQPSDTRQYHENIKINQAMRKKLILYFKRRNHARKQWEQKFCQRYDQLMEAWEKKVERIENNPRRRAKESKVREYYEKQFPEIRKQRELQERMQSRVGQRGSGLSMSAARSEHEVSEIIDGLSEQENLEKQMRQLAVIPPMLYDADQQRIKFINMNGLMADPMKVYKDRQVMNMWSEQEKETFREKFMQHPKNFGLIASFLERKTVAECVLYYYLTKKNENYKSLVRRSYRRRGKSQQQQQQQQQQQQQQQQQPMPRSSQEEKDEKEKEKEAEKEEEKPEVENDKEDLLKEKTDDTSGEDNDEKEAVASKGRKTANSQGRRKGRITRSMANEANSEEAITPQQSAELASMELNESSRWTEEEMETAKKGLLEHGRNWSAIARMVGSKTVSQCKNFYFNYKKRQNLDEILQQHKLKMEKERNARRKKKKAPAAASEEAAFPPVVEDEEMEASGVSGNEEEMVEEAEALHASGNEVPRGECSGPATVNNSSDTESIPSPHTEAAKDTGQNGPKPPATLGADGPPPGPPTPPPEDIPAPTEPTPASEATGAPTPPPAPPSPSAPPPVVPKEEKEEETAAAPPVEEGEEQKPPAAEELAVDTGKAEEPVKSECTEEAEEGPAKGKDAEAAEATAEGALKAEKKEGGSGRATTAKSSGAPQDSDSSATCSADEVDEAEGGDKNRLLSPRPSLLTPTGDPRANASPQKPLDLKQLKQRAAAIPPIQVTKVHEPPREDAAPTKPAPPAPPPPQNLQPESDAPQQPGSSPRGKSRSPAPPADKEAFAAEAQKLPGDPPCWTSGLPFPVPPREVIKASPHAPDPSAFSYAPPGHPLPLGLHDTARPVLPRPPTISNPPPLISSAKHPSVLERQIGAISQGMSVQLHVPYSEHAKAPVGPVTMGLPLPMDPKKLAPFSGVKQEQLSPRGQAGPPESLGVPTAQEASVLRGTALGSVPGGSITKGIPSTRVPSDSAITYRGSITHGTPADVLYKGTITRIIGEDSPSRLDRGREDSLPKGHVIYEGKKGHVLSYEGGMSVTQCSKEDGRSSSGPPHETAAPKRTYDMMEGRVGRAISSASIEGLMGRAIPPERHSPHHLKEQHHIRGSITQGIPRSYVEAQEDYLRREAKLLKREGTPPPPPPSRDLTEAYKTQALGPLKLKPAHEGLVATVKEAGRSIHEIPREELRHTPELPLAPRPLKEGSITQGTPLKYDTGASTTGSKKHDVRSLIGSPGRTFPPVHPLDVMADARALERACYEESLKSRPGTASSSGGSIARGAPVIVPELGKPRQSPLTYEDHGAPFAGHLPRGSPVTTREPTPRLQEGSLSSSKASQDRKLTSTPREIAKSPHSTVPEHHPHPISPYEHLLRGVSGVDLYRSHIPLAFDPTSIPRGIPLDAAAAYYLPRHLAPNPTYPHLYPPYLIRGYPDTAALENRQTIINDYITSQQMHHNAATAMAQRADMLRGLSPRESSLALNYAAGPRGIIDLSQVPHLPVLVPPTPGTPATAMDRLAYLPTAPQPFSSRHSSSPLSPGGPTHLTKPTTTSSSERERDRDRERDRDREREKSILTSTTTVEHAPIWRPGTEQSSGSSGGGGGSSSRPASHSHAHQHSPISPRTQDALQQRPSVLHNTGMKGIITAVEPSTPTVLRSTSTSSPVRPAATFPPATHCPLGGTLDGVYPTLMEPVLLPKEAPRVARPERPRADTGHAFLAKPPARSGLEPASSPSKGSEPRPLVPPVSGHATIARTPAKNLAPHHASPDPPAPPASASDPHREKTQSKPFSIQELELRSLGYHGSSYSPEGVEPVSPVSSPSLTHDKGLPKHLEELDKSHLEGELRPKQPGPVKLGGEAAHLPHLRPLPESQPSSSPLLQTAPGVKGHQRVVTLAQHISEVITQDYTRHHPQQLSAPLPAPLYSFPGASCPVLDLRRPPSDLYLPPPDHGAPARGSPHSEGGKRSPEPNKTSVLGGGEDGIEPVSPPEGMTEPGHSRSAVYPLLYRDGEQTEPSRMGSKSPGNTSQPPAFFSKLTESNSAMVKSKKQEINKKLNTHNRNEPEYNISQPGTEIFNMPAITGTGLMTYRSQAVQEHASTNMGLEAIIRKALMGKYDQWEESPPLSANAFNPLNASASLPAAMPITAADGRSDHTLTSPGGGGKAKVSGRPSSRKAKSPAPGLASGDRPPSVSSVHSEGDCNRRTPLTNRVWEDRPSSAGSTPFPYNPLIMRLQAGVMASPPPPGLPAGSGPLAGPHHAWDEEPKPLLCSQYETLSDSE
Chain of Histone deacetylase 3 (Homo sapiens) (O15379 whole entry): as the sequence (O15379 whole entry, looked up, one chain of several) above

Row | SMILES | IC50 [1] [µM] | IC50 [2] [µM] | IC50 [3] [µM] | Activity [4] | IC50 [5] [µM] | IC50 [6] [µM] | IC50 [7] [µM] | inhibition [8] | IC50 [9] [µM] | inhibition [10] | IC50 [11] [µM] | IC50 [12] [µM] | inhibition [13] | inhibition [14] | inhibition [15] | inhibition [16]
1 | CC/C(=C(\c1ccc(O)cc1)c1ccc(OCCN(C)C)cc1)c1ccc(CCC(=O)NO)cc1 | 1.8 | 1.94 | 3.6 | Not Active | 0.484 | 2.01 | – | – | – | – | – | – | – | – | – | –
2 | CCC(=C(c1ccc(O)cc1)c1ccc(OCCN(C)C)cc1)c1ccccc1 | 3.3 | – | 3.9 | – | – | – | 2.5 | inactive | 4 | inactive | 3.5 | 4 | inactive | inactive | inactive | –
3 | CC/C(=C(\c1ccc(O)cc1)c1ccc(OCCN(C)C)cc1)c1ccc(OCCCCC(=O)NO)cc1 | 1.2 | 0.8 | 2.9 | Not Active | 1.78 | 2.1 | – | – | – | – | – | – | – | – | – | –
4 | CC/C(=C(\c1ccc(O)cc1)c1ccc(OCCN(C)C)cc1)c1ccc(/C=C/C(=O)NO)cc1 | 2.7 | – | 4.8 | Not Active | 0.519 | 6.72 | – | – | – | – | – | – | – | – | – | Active
5 | CC/C(=C(\c1ccc(O)cc1)c1ccc(OCCN(C)C)cc1)c1ccc(C(=O)NO)cc1 | – | 1.12 | – | Not Active | 71.9 | – | – | – | – | – | – | – | – | – | – | –
6 | CC/C(=C(\c1ccc(O)cc1)c1ccc(OCCN(C)C)cc1)c1ccc(CCCCC(=O)NO)cc1 | 0.79 | 0.82 | 1.3 | Not Active | 0.3 | 0.734 | 1.1 | Active | 1.83 | Active | 1.27 | 2.17 | – | Active | – | –
